Common to all, as to test: TGFα-shedding assay-based GPCR screening with chimeric Gα subunit proteins
Holding throughout (type): cell-based

In assay [1] the target is T1, 348 GPCRs (Homo sapiens, UniProt Q9BZJ7).
T1 construct: expressed in transfected cells; host or cells: HEK293A

Assay [2] addresses T2, 348 GPCRs (Homo sapiens, UniProt P34998).
T2 construct: expressed in transfected cells; host or cells: HEK293A
T2 sequence (P34998 24-415): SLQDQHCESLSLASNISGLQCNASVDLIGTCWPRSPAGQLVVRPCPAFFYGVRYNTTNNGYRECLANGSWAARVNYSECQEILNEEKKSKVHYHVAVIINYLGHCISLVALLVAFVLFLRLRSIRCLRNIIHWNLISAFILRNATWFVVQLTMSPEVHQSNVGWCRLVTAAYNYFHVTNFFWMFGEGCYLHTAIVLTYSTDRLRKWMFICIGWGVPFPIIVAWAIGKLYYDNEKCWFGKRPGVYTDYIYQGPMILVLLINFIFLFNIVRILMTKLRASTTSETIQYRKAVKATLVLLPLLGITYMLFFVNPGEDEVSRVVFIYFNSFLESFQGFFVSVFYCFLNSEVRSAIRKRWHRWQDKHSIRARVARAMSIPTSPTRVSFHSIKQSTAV

The target of assay [3] is T3, 348 GPCRs (Homo sapiens, UniProt P34995).
T3 construct: expressed in transfected cells; host or cells: HEK293A
T3 sequence (P34995 1-402): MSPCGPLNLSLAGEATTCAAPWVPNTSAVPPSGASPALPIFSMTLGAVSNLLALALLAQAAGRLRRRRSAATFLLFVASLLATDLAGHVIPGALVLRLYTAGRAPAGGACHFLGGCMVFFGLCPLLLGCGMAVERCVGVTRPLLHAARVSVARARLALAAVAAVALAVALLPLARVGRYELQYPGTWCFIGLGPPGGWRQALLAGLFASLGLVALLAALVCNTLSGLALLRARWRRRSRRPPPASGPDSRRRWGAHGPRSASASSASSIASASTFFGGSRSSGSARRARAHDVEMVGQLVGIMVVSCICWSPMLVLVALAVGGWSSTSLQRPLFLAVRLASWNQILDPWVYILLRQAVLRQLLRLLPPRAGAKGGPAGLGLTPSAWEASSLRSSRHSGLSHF
The conditions noted are these: 10µM, Favipiravir 100μM.

In assay [4] the target is T4, 348 GPCRs (Homo sapiens, UniProt P29275).
T4 construct: expressed in transfected cells; host or cells: HEK293A
T4 sequence (P29275 1-332): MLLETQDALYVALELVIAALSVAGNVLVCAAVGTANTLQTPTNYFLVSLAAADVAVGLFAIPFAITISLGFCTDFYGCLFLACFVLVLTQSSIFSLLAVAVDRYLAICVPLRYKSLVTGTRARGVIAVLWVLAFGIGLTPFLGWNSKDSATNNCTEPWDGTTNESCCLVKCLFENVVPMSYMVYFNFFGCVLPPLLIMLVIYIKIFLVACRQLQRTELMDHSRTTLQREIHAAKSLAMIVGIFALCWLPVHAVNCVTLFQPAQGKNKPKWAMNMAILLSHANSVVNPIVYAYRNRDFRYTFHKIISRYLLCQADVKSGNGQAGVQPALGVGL
Particulars: 10µM, Favipiravir 100μM.

For assay [5], the target named is 348 GPCRs (Homo sapiens, UniProt P21728). The conditions noted are these: 10µM, Favipiravir 100μM.
Assay [6] deals with T5, 348 GPCRs (Homo sapiens, UniProt O14842).
T5 construct: expressed in transfected cells; host or cells: HEK293A
Particulars: 10µM, Favipiravir 100μM.

Assay [7] has as its target 348 GPCRs (Homo sapiens, UniProt P61073).
Assay [8] deals with T6, 348 GPCRs (Homo sapiens, UniProt Q96P69).
T6 construct: expressed in transfected cells; host or cells: HEK293A
Particulars: 10µM, Favipiravir 100μM.

Assay [9] has as its target T7, 348 GPCRs (Homo sapiens, UniProt Q8IZF4).
T7 construct: expressed in transfected cells; host or cells: HEK293A
T7 sequence (Q8IZF4 22-528): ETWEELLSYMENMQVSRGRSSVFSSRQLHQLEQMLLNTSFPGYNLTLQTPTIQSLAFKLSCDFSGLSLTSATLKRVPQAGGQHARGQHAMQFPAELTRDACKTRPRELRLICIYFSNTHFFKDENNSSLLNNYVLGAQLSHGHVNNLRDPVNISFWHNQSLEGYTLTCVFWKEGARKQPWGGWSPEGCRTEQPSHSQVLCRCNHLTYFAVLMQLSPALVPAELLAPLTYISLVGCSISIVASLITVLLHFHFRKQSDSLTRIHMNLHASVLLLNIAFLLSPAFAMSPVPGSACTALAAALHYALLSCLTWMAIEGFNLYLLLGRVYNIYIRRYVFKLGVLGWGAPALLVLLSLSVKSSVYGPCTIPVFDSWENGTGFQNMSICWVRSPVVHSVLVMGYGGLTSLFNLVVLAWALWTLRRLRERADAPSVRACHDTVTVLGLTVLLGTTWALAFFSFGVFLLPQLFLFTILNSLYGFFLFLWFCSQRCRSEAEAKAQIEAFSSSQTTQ

Assay [10] concerns the target T8, 348 GPCRs (Homo sapiens, UniProt P50406).
T8 construct: expressed in transfected cells; host or cells: HEK293A
The conditions noted are these: 10µM, Favipiravir 100μM.

Setting [11] is: read-out: % GPCR activation compared to TPA, GPCR GPR62 (G protein-coupled receptor 62).
Setting [12] is: read-out: % GPCR activation compared to TPA, GPCR CRHR1 (corticotropin releasing hormone receptor 1).
[13] abbreviates: read-out: % GPCR activation compared to TPA, EP1 (prostaglandin E receptor 1).
Setting [14] is: read-out: % GPCR activation compared to TPA, ADORA2B (adenosine A2b receptor).
[15] abbreviates: read-out: % GPCR activation compared to TPA, D1 (dopamine receptor D1).
Where [16] appears, read: read-out: % GPCR activation compared to TPA, FFA1 (free fatty acid receptor 1).
Where [17] appears, read: read-out: % GPCR activation compared to TPA, GPCR CXCR4 (chemokine (C-X-C motif) receptor 4).
Setting [18] is: read-out: % GPCR activation compared to TPA, GPR78 (G Protein-Coupled Receptor 78).
Where [19] appears, read: read-out: % GPCR activation compared to TPA, GPCR GPR114 (G-protein-coupled receptor 114 (ADGRG5)).
Setting [20] is: read-out: % GPCR activation compared to TPA, 5-HT6 (5-hydroxytryptamine receptor 6).
Where [21] appears, read: EP1 (prostaglandin E receptor 1), read-out: % GPCR activation compared to TPA.
[22] abbreviates: ADORA2B (adenosine A2b receptor), read-out: % GPCR activation compared to TPA.
[23] abbreviates: D1 (dopamine receptor D1), read-out: % GPCR activation compared to TPA.
Where [24] appears, read: FFA1 (free fatty acid receptor 1), read-out: % GPCR activation compared to TPA.
The mark [25] stands for this setting: GPR78 (G Protein-Coupled Receptor 78), read-out: % GPCR activation compared to TPA.
[26] abbreviates: 5-HT6 (5-hydroxytryptamine receptor 6), read-out: % GPCR activation compared to TPA.
Setting [27] is: GPCR GPR62 (G protein-coupled receptor 62), read-out: % GPCR activation compared to TPA.
The mark [28] stands for this setting: GPCR CRHR1 (corticotropin releasing hormone receptor 1), read-out: % GPCR activation compared to TPA.
[29] abbreviates: GPCR CXCR4 (chemokine (C-X-C motif) receptor 4), read-out: % GPCR activation compared to TPA.
The mark [30] stands for this setting: GPCR GPR114 (G-protein-coupled receptor 114 (ADGRG5)), read-out: % GPCR activation compared to TPA.

Like-named read-outs stand apart in the source and are kept apart here.

Chain of 348 GPCRs (Homo sapiens, UniProt P21728) (P21728 whole entry): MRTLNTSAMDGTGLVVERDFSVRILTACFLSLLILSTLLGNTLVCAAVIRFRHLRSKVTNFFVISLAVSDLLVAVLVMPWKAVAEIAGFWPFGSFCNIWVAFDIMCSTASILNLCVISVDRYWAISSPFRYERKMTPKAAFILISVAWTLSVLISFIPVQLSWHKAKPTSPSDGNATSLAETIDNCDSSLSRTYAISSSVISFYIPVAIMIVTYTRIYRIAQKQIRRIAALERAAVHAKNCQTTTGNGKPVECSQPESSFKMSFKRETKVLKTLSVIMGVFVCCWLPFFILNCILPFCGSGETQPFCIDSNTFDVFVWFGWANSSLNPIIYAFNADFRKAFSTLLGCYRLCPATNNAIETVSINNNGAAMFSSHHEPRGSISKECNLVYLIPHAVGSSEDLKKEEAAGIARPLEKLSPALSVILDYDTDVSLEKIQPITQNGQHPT
T5 sequence (O14842 whole entry): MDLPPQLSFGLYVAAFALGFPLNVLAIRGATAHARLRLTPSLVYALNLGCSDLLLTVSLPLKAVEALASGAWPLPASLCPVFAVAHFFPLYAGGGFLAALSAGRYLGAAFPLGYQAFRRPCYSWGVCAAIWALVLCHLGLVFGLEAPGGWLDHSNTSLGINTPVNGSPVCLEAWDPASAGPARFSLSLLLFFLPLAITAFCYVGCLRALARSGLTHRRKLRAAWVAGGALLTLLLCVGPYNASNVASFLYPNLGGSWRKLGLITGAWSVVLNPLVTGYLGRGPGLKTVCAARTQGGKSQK
Chain of 348 GPCRs (Homo sapiens, UniProt P61073) (P61073 whole entry): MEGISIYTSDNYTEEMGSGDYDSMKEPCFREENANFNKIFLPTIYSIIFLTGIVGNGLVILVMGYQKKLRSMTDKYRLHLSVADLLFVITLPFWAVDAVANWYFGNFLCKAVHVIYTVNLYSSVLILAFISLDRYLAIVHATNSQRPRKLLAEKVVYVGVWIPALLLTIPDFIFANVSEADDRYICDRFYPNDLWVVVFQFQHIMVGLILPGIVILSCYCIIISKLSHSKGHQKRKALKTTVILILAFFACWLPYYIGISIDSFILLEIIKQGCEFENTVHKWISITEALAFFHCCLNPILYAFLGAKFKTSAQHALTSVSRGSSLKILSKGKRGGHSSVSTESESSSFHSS
T6 sequence (Q96P69 whole entry): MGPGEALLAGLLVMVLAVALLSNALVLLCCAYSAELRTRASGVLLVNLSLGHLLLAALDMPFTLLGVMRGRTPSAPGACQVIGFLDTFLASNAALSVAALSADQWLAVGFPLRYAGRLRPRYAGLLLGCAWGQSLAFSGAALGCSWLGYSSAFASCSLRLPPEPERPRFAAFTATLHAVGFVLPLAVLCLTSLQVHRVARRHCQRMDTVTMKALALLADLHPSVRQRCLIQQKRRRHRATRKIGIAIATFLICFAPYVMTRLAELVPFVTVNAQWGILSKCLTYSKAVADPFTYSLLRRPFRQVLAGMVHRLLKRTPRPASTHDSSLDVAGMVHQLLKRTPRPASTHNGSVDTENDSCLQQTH
T8 sequence (P50406 whole entry): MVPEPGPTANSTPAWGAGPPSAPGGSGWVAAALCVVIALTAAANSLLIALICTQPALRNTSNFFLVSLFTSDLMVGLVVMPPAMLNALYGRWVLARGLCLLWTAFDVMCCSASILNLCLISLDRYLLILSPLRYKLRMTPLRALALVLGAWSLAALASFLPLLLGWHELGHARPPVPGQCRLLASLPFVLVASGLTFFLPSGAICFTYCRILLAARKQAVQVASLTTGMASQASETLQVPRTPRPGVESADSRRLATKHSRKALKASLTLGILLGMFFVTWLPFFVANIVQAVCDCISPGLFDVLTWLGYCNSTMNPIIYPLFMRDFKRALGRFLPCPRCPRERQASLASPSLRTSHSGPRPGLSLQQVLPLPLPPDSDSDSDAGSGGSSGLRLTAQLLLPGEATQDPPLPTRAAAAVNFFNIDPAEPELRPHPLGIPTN
T1 sequence (Q9BZJ7 whole entry): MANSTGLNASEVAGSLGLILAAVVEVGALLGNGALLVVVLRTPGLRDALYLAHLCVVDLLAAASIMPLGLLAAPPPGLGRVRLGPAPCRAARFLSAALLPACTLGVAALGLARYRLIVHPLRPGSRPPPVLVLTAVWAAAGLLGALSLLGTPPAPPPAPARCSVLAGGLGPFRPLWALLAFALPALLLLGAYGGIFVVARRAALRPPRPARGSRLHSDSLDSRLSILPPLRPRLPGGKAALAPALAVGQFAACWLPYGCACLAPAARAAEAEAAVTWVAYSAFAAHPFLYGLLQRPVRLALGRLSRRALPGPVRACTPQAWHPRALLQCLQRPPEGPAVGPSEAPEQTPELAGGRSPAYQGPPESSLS

As to `CC(C)OC(=O)[C@H](C)N[P@](=O)(OC[C@H]1O[C@@H](n2ccc(=O)[nH]c2=O)[C@](C)(F)[C@@H]1O)Oc1ccccc1` [sofosbuvir], the activation at 10 µM in assay [1] (setting [11]) is 1.52%; in assay [2] (setting [12]) it was 1.15%; in [4] (setting [14]), 0.00372%; in [5] (setting [15]), -0.068%; in assay [6] (setting [16]) it was -1.47%; in assay [7] (setting [17]), 1.3%. In addition, the activation at 10 µM in assay [9] (setting [19]) was found to be 0.492%. In addition, the activation at 100 µM in assay [3] (setting [13]) was -0.685%; in assay [8] (setting [18]) it was 2.01%; in [10] (setting [20]), -1.12%.
For the compound `NC(=O)c1nc(F)cnc1O` [favipiravir, 6-fluoro-3-hydroxy-2-pyrazinecarboxamide], the activation at 100 µM is -1.63% in assay [1] (GPCR GPR62 (G protein-coupled receptor 62), 100μM, read-out: % GPCR activation compared to TPA); -0.37% in assay [2] (GPCR CRHR1 (corticotropin releasing hormone receptor 1), 100μM, read-out: % GPCR activation compared to TPA); -1.04% in assay [3] (setting [21]); -0.773% in [7] (GPCR CXCR4 (chemokine (C-X-C motif) receptor 4), 100μM, read-out: % GPCR activation compared to TPA); -0.429% in [8] (setting [25]); -2.55% in assay [9] (GPCR GPR114 (G-protein-coupled receptor 114 (ADGRG5)), 100μM, read-out: % GPCR activation compared to TPA). For the same compound, in assay [10] (setting [26]), the activation at 100 µM was -1.66%. Further, the activation at 10 µM was 1.67% in assay [4] (setting [22]), -0.0785% in assay [5] (setting [23]) and -4.93% in assay [6] (setting [24]).
Consider `CCC(CC)COC(=O)[C@H](C)N[P@](=O)(OC[C@H]1O[C@@](C#N)(c2ccc3c(N)ncnn23)[C@H](O)[C@@H]1O)Oc1ccccc1` [remdesivir], for which the activation at 10 µM is 0.871% in assay [1] (setting [11]); 2.05% in assay [2] (setting [12]); 1.79% in assay [4] (setting [14]); 4.77% in assay [5] (setting [15]); -6.96% in assay [6] (setting [16]); 1.64% in assay [7] (setting [17]). The activation at 10 µM in assay [9] (setting [19]) was -1.51%. Further, the activation at 100 µM was found to be 0.488% in assay [3] (setting [13]), 2.44% in assay [8] (setting [18]) and 0.785% in assay [10] (setting [20]).
For the compound `N#C[C@@]1(c2ccc3c(N)ncnn23)O[C@H](CO)[C@@H](O)[C@H]1O` [GS441524], the activation at 10 µM in assay [1] (setting [27]) was -0.286%; in assay [2] (setting [28]), 0.467%; in assay [4] (setting [22]) it was 1.2%; in [5] (setting [23]), 0.291%; in assay [6] (setting [24]), -14.2%; in assay [7] (setting [29]), -0.228%. Also, the activation at 10 µM in assay [9] (setting [30]) is -2.76%. Moreover, the activation at 100 µM was -1.84% in assay [3] (setting [21]), 0.894% in [8] (setting [25]) and -0.422% in assay [10] (setting [26]).
Turning to `CC(C)C(=O)OC[C@H]1O[C@@H](n2ccc(NO)nc2=O)[C@H](O)[C@@H]1O` [molnupiravir], the activation at 10 µM in assay [1] (setting [27]) is -0.851%; in assay [2] (setting [28]), 1.11%; in assay [4] (setting [22]), -1.6%; in assay [5] (setting [23]), 1.11%; in [6] (setting [24]), -2.86%; in assay [7] (setting [29]), -1.55%. The activation at 10 µM in [9] (setting [30]) was -2.86%. Besides, the activation at 100 µM in assay [3] (setting [21]) was 0.204%; in assay [8] (setting [25]), -0.581%; in [10] (setting [26]), -0.864%.

These data come from article PMC10175918 (Communications Biology, 2023).
